Experimental data: ChEMBL document CHEMBL5550210, “Discovery of Novel α,β-Unsaturated Amide Derivatives as Candidate Antifungals to Overcome Fungal Resistance” (J Med Chem, 2024)
Values after ≈ are worked out from the molar mass of the structure shown. Active and inactive are the calls of the source. No cut-off for these calls is given here.

How the values were obtained:
[1] = system: Candida albicans; experiment: Antifungal activity against fluconazole-resistant Candida albicans 904 assessed as inhibition of fungal growth by CLSI based microdilution method; format: functional
[2] = system: Candida albicans; experiment: Antifungal activity against fluconazole-resistant Candida albicans 904 assessed as inhibition of fungal biofilm formation incubated for 24 hrs by XTT assay; format: functional, organism-based
[3] = system: Candida albicans; experiment: Antifungal activity against Candida albicans CPCC400616 assessed as downregulation of ALS3 gene expression at 2 ug/ml incubated for 12 hrs by RT-PCR analysis; format: functional, organism-based; details: dose 2.0 µg/ml
[4] = system: Candida albicans; experiment: Antifungal activity against fluconazole-resistant Candida albicans 901 assessed as inhibition of fungal growth by CLSI based microdilution method; format: functional
[5] = system: Candida albicans; experiment: Antifungal activity against fluconazole-resistant Candida albicans 904 assessed as downregulation of CDR1 gene expression at 16 ug/ml incubated for 16 hrs by RT-PCR analysis; format: functional, organism-based; details: dose 16.0 µg/ml
[6] = system: Candida albicans; experiment: Antifungal activity against Candida albicans SC5314 assessed as inhibition of fungal growth by CLSI protocol based microdilution method; format: functional
[7] = system: Candida albicans; experiment: Antifungal activity against fluconazole-resistant Candida albicans 904 assessed as downregulation of CPH1 gene expression at 16 ug/ml incubated for 12 hrs by RT-PCR analysis; format: functional, organism-based; details: dose 16.0 µg/ml
[8] = system: Candida albicans; experiment: Ratio of MFC for fungicidal activity against Candida albicans to MIC for antifungal activity against Candida albicans; format: functional
[9] = system: Candida parapsilosis; experiment: Antifungal activity against Candida parapsilosis ATCC 22019 assessed as inhibition of fungal growth by CLSI protocol based microdilution method; format: functional; details: Lodderomyces parapsilosis
[10] = molecular target: T1, Lanosterol 14-alpha demethylase (Candida albicans (strain SC5314 / ATCC MYA-2876) (Yeast), UniProt P10613); experiment: Inhibition of CYP51 in Candida albicans SC5314 assessed as increase in obtusifoliol level at 0.031 ug/ml incubated for 24 hrs by GC-MS analysis relative to control; details: at 0.031 µg/mL
T1 sequence (P10613 whole entry): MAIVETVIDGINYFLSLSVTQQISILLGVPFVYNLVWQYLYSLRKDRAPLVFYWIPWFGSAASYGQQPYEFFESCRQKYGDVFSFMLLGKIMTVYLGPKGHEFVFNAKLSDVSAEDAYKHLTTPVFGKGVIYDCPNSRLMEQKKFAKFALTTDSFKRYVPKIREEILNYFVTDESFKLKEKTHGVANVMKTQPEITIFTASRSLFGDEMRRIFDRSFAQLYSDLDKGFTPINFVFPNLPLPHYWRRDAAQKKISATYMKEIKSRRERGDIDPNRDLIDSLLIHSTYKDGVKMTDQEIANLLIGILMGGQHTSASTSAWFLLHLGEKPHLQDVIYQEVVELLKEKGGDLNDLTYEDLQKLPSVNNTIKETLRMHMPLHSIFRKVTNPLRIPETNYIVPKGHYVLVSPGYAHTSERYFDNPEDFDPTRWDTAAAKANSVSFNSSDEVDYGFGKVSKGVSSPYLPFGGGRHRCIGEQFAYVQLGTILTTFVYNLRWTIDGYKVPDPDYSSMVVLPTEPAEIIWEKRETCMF

[11] = system: Candida albicans; experiment: Antifungal activity against Candida albicans CPCC400616 assessed as downregulation of TEC1 gene expression at 2 ug/ml incubated for 12 hrs by RT-PCR analysis; format: functional, organism-based; details: dose 2.0 µg/ml
[12] = system: Candida albicans; experiment: Antifungal activity against fluconazole-resistant Candida albicans 904 assessed as downregulation of EFG1 gene expression at 16 ug/ml incubated for 12 hrs by RT-PCR analysis; format: functional, organism-based; details: dose 16.0 µg/ml
[13] = system: Candida albicans; experiment: Antifungal activity against fluconazole-resistant Candida albicans 904 assessed as downregulation of ERG11 gene expression at 16 ug/ml incubated for 16 hrs by RT-PCR analysis; format: functional, organism-based; details: dose 16.0 µg/ml
[14] = system: Cryptococcus neoformans; experiment: Antifungal activity against Cryptococcus neoformans CGMCC2.3161 assessed as inhibition of fungal growth by CLSI protocol based microdilution method; format: functional
[15] = molecular target: T1, Lanosterol 14-alpha demethylase; experiment: Inhibition of CYP51 in Candida albicans SC5314 assessed as increase in lanosterol level at 0.031 ug/ml incubated for 24 hrs by GC-MS analysis relative to control; details: at 0.031 µg/mL
[16] = system: Candida albicans; experiment: Fungicidal activity against Candida albicans assessed as inhibition of fungal growth measured after 48 hrs by CLSI protocol based microdilution method; format: functional
[17] = system: Candida albicans; experiment: Antifungal activity against fluconazole-resistant Candida albicans 904 assessed as downregulation of MDR1 gene expression at 16 ug/ml incubated for 16 hrs by RT-PCR analysis; format: functional, organism-based; details: dose 16.0 µg/ml
[18] = system: Candida albicans; experiment: Antifungal activity against fluconazole-resistant Candida albicans 17 assessed as inhibition of fungal growth by CLSI based microdilution method; format: functional
[19] = system: Candida albicans; experiment: Antifungal activity against Candida albicans CPCC400616 assessed as inhibition of hyphae formation at 2 ug/ml incubated for 4 hrs by inverted microscopic analysis; format: functional, organism-based; details: dose 2.0 µg/ml
[20] = molecular target: Voltage-gated inwardly rectifying potassium channel KCNH2 (Homo sapiens, UniProt Q12809); experiment: Inhibition of hERG1; format: toxicity
Sequence of Voltage-gated inwardly rectifying potassium channel KCNH2 (Q12809 whole entry): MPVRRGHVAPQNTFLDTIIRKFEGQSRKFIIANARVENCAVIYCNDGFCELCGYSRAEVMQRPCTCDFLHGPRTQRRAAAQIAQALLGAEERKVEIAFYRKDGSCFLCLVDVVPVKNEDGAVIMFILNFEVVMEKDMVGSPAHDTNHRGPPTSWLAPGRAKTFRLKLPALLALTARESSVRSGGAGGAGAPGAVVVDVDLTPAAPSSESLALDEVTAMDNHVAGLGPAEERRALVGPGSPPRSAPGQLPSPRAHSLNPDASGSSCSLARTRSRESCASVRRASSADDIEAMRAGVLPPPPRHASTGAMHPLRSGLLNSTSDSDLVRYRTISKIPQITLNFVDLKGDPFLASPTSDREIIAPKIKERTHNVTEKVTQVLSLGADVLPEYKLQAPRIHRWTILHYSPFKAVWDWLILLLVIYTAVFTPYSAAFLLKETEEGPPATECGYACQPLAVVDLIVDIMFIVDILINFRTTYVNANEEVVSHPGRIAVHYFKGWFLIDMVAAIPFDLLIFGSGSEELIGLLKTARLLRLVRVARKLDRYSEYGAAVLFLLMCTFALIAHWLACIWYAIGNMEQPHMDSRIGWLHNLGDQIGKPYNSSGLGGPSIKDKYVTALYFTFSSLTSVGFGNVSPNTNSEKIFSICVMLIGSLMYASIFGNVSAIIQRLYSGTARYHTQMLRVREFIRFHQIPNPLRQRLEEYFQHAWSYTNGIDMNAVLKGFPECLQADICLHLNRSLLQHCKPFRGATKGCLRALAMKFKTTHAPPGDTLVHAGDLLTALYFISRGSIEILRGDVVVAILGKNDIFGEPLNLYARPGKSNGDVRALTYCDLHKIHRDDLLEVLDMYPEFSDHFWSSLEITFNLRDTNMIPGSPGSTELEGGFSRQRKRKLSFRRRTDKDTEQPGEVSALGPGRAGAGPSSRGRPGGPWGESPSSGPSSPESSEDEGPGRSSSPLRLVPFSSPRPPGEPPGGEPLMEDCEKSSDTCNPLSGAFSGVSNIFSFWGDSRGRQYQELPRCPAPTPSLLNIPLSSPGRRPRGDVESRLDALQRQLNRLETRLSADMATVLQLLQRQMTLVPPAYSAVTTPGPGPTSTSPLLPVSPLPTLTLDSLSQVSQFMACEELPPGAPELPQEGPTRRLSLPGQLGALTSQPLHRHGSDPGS

[21] = molecular target: T1, Lanosterol 14-alpha demethylase; experiment: Inhibition of CYP51 in Candida albicans SC5314 assessed as reduction in ergosterol content at 0.031 ug/ml incubated for 24 hrs by GC-MS analysis relative to control; details: at 0.031 µg/mL
[22] = Acute toxicity in rat assessed as Low-observed adverse effect level at po administration; format: organism-based; details: in vivo
[23] = system: Candida albicans; experiment: Antifungal activity against Candida albicans assessed as inhibition of fungal growth by CLSI protocol based microdilution method; format: functional
[24] = system: Candida albicans; experiment: Antifungal activity against fluconazole-resistant Candida albicans 904 assessed as downregulation of TEC1 gene expression at 16 ug/ml incubated for 12 hrs by RT-PCR analysis; format: functional, organism-based; details: dose 16.0 µg/ml
[25] = system: Candida albicans; experiment: Antifungal activity against Candida albicans CPCC400616 assessed as downregulation of CPH1 gene expression at 2 ug/ml incubated for 12 hrs by RT-PCR analysis; format: functional, organism-based; details: dose 2.0 µg/ml
[26] = system: Candida tropicalis; experiment: Antifungal activity against Candida tropicalis CGMCC 2.3739 assessed as inhibition of fungal growth by CLSI protocol based microdilution method; format: functional
[27] = Half life in mouse plasma measured at 180 mins; format: ADME, cell-free
[28] = system: Candida albicans; experiment: Antifungal activity against fluconazole-resistant Candida albicans 904 assessed as downregulation of ALS3 gene expression at 16 ug/ml incubated for 12 hrs by RT-PCR analysis; format: functional, organism-based; details: dose 16.0 µg/ml
[29] = system: Candida albicans; experiment: Antifungal activity against fluconazole-resistant Candida albicans 904 assessed as increase in intracellular fluorescence intensity at 32 ug/ml incubated for 4 hrs by fluorescence inverted microscopic analysis; format: functional, organism-based; details: dose 32.0 µg/ml
[30] = system: Candida albicans; experiment: Antifungal activity against Candida albicans CPCC400616 assessed as inhibition of fungal growth by CLSI protocol based microdilution method; format: functional
[31] = system: Candida albicans; experiment: Antifungal activity against fluconazole-resistant Candida albicans 904 assessed as inhibition of hyphae formation at 16 ug/ml incubated for 4 hrs by inverted microscopic analysis; format: functional, organism-based; details: dose 16.0 µg/ml
[32] = system: Aspergillus fumigatus; experiment: Antifungal activity against Aspergillus fumigatus CGMCC 3.7795 assessed as inhibition of fungal growth by CLSI protocol based microdilution method; format: functional
[33] = system: Pichia kudriavzevii; experiment: Antifungal activity against Candida krusei AS 2.1045 assessed as inhibition of fungal growth by CLSI protocol based microdilution method; format: functional
[34] = system: Candida albicans; experiment: Antifungal activity against Candida albicans CPCC400616 assessed as inhibition of fungal biofilm formation incubated for 24 hrs by XTT assay; format: functional, organism-based
[35] = system: Candida albicans; experiment: Antifungal activity against fluconazole-resistant Candida albicans 904 assessed as downregulation of CDR2 gene expression at 16 ug/ml incubated for 16 hrs by RT-PCR analysis; format: functional, organism-based; details: dose 16.0 µg/ml
[36] = system: J774.A1; experiment: Cytotoxicity against mouse J774.A1 cells assessed as inhibition of cell growth incubated for 72 hrs by MTT assay; format: functional, cell-based; details: J774.A1, 72 h
[37] = Metabolic stability in mouse liver microsomes assessed as half life; format: ADME, Microsome
[38] = molecular target: T1, Lanosterol 14-alpha demethylase; experiment: Inhibition of CYP51 in Candida albicans SC5314 assessed as increase in eburicol level at 0.031 ug/ml incubated for 24 hrs by GC-MS analysis relative to control; details: at 0.031 µg/mL
[39] = system: Candida albicans; experiment: Antifungal activity against fluconazole-resistant Candida albicans 632 assessed as inhibition of fungal growth by CLSI based microdilution method; format: functional
[40] = system: Candida albicans; experiment: Antifungal activity against Candida albicans CPCC400616 assessed as downregulation of EFG1 gene expression at 2 ug/ml incubated for 12 hrs by RT-PCR analysis; format: functional, organism-based; details: dose 2.0 µg/ml
[41] = Stability in mouse plasma assessed as parent compound remaining measured at 180 mins; format: ADME, cell-free; details: read-out: Stability

## O=C(/C=C/c1ccc(COC(Cn2ccnc2)c2ccc(Cl)cc2Cl)cc1)Nc1ccc(Cl)cc1Cl (configuration not stated)
[1]
  MIC: 1 µg/mL (≈ 1.78 µM)
[2]
  Activity: Dose-Dependent Effect
[3]
  Activity: Active
[4]
  MIC: 1 µg/mL (≈ 1.78 µM)
[5]
  Activity: Active
[6]
  MIC: 0.03 µg/mL (≈ 0.0534 µM)
[7]
  Activity: Active
[8]
  Ratio: 32
[9]
  MIC: 0.06 µg/mL (≈ 0.107 µM)
[10]
  inhibition (INH): Active
[11]
  Activity: Active
[12]
  Activity: Active
[13]
  Activity: Active
[14]
  MIC: 0.5 µg/mL (≈ 0.891 µM)
[15]
  inhibition (INH): Active
[16]
  MFC: 32 µg/mL (≈ 57 µM)
[17]
  Activity: Active
[18]
  MIC: 0.25 µg/mL (≈ 0.445 µM)
[19]
  Activity: Active
[20]
  inhibition (INH): Active
[21]
  inhibition (INH): 1.25%
[22]
  LOAEL: 0.452 mg/kg
[23]
  MIC: 1 µg/mL (≈ 1.78 µM)
[24]
  Activity: Active
[25]
  Activity: Active
[26]
  MIC: 2 µg/mL (≈ 3.56 µM)
[27]
  half-life: > 6 h
[28]
  Activity: Active
[29]
  Activity: Active
[30]
  MIC: 0.06 µg/mL (≈ 0.107 µM)
[31]
  Activity: Active
[32]
  MIC: 0.5 µg/mL (≈ 0.891 µM)
[33]
  MIC: 0.5 µg/mL (≈ 0.891 µM)
[34]
  Activity: Dose-Dependent Effect
[35]
  Activity: Active
[36]
  IC50: 24.6 µM
[37]
  half-life: 0.493 h
[38]
  inhibition (INH): Active
[39]
  MIC: 0.25 µg/mL (≈ 0.445 µM)
[40]
  Activity: Active
[41]
  remaining at 3 h: 97.8%

## CCCCNC(=O)/C=C/c1ccc(COC(Cn2ccnc2)c2ccc(Cl)cc2Cl)cc1 (configuration not stated)
[1]
  MIC: 1 µg/mL (≈ 2.12 µM)
[2]
  Activity: Dose-Dependent Effect
[3]
  Activity: Active
[4]
  MIC: 1 µg/mL (≈ 2.12 µM)
[5]
  Activity: Active
[6]
  MIC: 0.015 µg/mL (≈ 0.0318 µM)
[7]
  Activity: Active
[8]
  Ratio: 16
[9]
  MIC: 0.06 µg/mL (≈ 0.127 µM)
[10]
  inhibition (INH): Active
[11]
  Activity: Active
[12]
  Activity: Active
[13]
  Activity: Active
[14]
  MIC: 0.5 µg/mL (≈ 1.06 µM)
[15]
  inhibition (INH): Active
[16]
  MFC: 32 µg/mL (≈ 67.7 µM)
[17]
  Activity: Active
[18]
  MIC: 4 µg/mL (≈ 8.47 µM)
[19]
  Activity: Active
[20]
  inhibition (INH): Not Active
[21]
  inhibition (INH): 0.67%
[22]
  LOAEL: 1.138 mg/kg
[23]
  MIC: 2 µg/mL (≈ 4.23 µM)
[24]
  Activity: Active
[25]
  Activity: Active
[26]
  MIC: 64 µg/mL (≈ 135 µM)
[27]
  half-life: > 6 h
[28]
  Activity: Active
[29]
  Activity: Active
[30]
  MIC: 0.03 µg/mL (≈ 0.0635 µM)
[31]
  Activity: Active
[32]
  MIC: 0.5 µg/mL (≈ 1.06 µM)
[33]
  MIC: 2 µg/mL (≈ 4.23 µM)
[34]
  Activity: Dose-Dependent Effect
[35]
  Activity: Active
[36]
  IC50: 29.4 µM
[37]
  half-life: 1 h
[38]
  inhibition (INH): Active
[39]
  MIC: 0.25 µg/mL (≈ 0.529 µM)
[40]
  Activity: Active
[41]
  remaining at 3 h: 102%
